Data taken from publication PMC9469100, “Turning Nonselective Inhibitors of Type I Protein Arginine Methyltransferases into Potent and Selective Inhibitors of Protein Arginine Methyltransferase 4 through a Deconstruction–Reconstruction and Fragment-Growing Approach” (Journal of Medicinal Chemistry, 2022).
“Also recorded” adds a separate entry of the source. Where two headings read alike, the source gives them in different places.

Legend:
[1] = molecular target: T1, MLL1 complex (Homo sapiens, UniProt Q03164); assay: HotSpot KMT activity assay, MLL1; format: biochemical; conditions: 1 µM; mean ± SD, two experiments; read-out: % enzyme residual activ. after treatment with 12h, 1 µM, MLL1
T1 construct: including MLL1 residues 3745–3969, C-terminus; His (N); purchased Reaction Biology Corporation
Protocol: (§1) Then, ^3H-SAM (final concentration 1 μM) was delivered into the reaction mixture to initiate the reaction. After incubation for 60 min at 30 °C, the reaction mixture was delivered to filter-paper for detection (as assessed by scintillation). […] No inhibitor control (DMSO) was considered as 100% enzyme activity. Data were analyzed using Excel and GraphPad Prism 6.0 software (GraphPad Software Inc., San Diego, CA). Values obtained for each compound are mean ± SD determined for two separate experiments.

[2] = molecular target: ΔN(1–60)-PRMT8 (Homo sapiens, UniProt Q9NR22); assay: Radioisotope-based filter-binding (HotSpot) assay, PRMT8
Sequence of ΔN(1–60)-PRMT8 (Q9NR22 61-394, stated change not applied): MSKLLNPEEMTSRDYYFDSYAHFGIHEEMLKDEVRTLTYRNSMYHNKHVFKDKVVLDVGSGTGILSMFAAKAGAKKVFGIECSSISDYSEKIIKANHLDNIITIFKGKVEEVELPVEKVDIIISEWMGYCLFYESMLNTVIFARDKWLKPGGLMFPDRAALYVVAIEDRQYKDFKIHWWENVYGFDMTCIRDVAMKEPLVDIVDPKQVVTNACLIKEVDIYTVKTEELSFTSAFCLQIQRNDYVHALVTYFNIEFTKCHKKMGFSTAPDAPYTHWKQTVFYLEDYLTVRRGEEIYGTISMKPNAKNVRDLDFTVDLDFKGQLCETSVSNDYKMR
Protocol: (§2) Then, ^3H-SAM (final concentration 1 μM) was delivered into the reaction mixture to initiate the reaction. After incubation for 60 min at 30 °C, the reaction mixture was delivered to filter paper for detection (as assessed by scintillation). Data were analyzed using Excel and GraphPad Prism 6.0 software (GraphPad Software Inc., San Diego, CA) for IC50 curve fits using sigmoidal dose vs response-variable slope (four parameters) equations.

[3] = molecular target: SMYD3 (Homo sapiens, UniProt Q9H7B4); assay: HotSpot KMT activity assay, SMYD3; format: biochemical; conditions: 1 µM; mean ± SD, two experiments; read-out: % enzyme residual activ. after treatment with 12h, 1 µM, SMYD3
Sequence of SMYD3 (Q9H7B4 whole entry): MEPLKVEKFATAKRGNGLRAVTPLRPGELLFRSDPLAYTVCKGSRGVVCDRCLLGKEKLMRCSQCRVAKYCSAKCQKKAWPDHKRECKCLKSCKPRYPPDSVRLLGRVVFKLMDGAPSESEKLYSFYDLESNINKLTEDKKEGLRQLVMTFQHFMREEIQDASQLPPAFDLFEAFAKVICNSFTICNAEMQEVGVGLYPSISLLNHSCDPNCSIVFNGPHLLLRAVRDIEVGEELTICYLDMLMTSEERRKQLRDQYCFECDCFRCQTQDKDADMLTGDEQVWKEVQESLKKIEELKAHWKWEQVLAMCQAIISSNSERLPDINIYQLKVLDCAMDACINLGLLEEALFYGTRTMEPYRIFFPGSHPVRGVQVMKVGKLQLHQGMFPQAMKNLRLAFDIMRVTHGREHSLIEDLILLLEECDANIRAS
Protocol: as §1

[4] = molecular target: T2, SETD8 (Homo sapiens, UniProt Q9NQR1); assay: HotSpot KMT activity assay, SETD8; format: biochemical; conditions: 1 µM; mean ± SD, two experiments; read-out: % enzyme residual activ. after treatment with 12h, 1 µM, SETD8
T2 construct: SETD8 (residues 190–352, C-terminus); N-terminal His-tag; His (N); purchased Reaction Biology Corporation
T2 sequence (Q9NQR1 231-393): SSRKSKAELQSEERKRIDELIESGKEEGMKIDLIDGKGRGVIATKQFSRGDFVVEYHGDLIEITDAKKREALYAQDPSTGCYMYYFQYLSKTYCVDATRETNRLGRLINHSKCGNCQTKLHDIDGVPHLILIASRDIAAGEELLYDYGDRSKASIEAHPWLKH
Protocol: as §1

[5] = system: panel of eight lysine methyltransferases (KMTs); assay: Selectivity assay against a panel of KMTs; format: biochemical, human; conditions: 12h at 1 and 10 μM; ASH1L, EZH2, MLL1, SET7/9, SETD8, SUV39H2, SUV420H1, DOT1L
Protocol: as §1

[6] = molecular target: PRMT6 (Homo sapiens, UniProt Q96LA8); assay: Radioisotope-based filter-binding (HotSpot) assay, PRMT6; conditions: radioisotope-based filter assay
Sequence of PRMT6 (Q96LA8 2-375): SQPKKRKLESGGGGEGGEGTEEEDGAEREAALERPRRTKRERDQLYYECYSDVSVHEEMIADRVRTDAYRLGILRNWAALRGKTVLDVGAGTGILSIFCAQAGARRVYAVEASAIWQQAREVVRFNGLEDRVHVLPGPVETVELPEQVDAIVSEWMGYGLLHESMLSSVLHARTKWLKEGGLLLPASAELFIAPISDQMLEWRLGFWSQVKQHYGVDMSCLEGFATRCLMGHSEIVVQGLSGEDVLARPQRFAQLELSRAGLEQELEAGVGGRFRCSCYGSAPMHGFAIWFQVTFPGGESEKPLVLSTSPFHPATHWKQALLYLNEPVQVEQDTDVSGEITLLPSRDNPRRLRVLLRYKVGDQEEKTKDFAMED
Protocol: as §2

[7] = molecular target: T3, SUV420H1 (Homo sapiens, UniProt Q4FZB7); assay: HotSpot KMT activity assay, SUV420H1; format: biochemical; conditions: 1 µM; mean ± SD, two experiments; read-out: % enzyme residual activ. after treatment with 12h, 1 µM, SUV420H1
T3 construct: SUV420H1-tv2 (residues 2–393); C-terminus; N-terminal GST-tag; GST (N); purchased Reaction Biology Corporation
T3 sequence (Q4FZB7 2-393 isoform Q4FZB7-2): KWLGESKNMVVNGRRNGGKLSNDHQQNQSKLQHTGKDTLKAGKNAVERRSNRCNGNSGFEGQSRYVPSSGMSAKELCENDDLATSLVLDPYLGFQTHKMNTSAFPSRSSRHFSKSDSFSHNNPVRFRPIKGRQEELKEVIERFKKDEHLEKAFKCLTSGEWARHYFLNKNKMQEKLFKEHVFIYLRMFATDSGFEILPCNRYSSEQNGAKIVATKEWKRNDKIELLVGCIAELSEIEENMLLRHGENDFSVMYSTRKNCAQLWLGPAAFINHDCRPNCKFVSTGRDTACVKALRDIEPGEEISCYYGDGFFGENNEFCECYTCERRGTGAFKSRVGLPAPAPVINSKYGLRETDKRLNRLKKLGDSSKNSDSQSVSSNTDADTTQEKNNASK
Protocol: as §1

[8] = Parallel artificial membrane permeability assay (PAMPA); format: in vitro ADME; conditions: phosphate buffer pH 7.4, donor 0.2 mM, 24 h at room temperature
Protocol: A donor solution (0.2 mM) was prepared by diluting 20 mM dimethyl sulfoxide (DMSO) compound stock solution using phosphate buffer (pH 7.4, 0.01 M). Filters were coated with 5 μL of a 1% (w/v) dodecane solution of L-α-phosphatidylcholine. Donor solution (150 μL) was added to each well of the filter plate. To each well of the acceptor plate, 300 μL of solution (5% DMSO in phosphate buffer) was added. […] The sandwich was incubated for 24 h at room temperature under gentle shaking. After the incubation time, the sandwich plates were separated, and 250 μL of the acceptor plate was transferred to a UV quartz microtiter plate and measured by UV spectroscopy, using a Multiskan GO microplate spectrophotometer (Thermo Fisher Scientific) at 250–500 nm at a step of 5 nm. Reference solutions (250 μL) were prepared diluting the sample stock solutions to the same concentration as that with no membrane barrier.

[9] = molecular target: PRMT1 (Homo sapiens, UniProt Q99873); assay: Radioisotope-based filter-binding (HotSpot) assay, PRMT1; conditions: for IC50: radioisotope-based filter assay
Sequence of PRMT1 (Q99873 2-371): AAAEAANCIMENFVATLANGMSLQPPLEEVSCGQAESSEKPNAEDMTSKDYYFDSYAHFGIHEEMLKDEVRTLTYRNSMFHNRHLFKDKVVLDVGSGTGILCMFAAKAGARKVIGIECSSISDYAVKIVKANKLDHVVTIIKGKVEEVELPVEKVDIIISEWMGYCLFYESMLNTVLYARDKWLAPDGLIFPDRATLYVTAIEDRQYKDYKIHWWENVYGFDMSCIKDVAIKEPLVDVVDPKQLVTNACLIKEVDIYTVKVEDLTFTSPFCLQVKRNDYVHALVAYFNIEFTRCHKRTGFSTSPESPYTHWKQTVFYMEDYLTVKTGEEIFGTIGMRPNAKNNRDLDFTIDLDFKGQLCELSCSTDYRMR
Protocol: as §2

[10] = molecular target: T4, human PRMT4 (full length) (Homo sapiens, UniProt Q86X55); assay: SPR binding to immobilized PRMT4; conditions: for τR: in vitro residence time, τ = 1/koff
T4 construct: Full-length recombinant PRMT4 (Active motif, # 81107); purchased Active motif # 81107
T4 sequence (Q86X55 1-608): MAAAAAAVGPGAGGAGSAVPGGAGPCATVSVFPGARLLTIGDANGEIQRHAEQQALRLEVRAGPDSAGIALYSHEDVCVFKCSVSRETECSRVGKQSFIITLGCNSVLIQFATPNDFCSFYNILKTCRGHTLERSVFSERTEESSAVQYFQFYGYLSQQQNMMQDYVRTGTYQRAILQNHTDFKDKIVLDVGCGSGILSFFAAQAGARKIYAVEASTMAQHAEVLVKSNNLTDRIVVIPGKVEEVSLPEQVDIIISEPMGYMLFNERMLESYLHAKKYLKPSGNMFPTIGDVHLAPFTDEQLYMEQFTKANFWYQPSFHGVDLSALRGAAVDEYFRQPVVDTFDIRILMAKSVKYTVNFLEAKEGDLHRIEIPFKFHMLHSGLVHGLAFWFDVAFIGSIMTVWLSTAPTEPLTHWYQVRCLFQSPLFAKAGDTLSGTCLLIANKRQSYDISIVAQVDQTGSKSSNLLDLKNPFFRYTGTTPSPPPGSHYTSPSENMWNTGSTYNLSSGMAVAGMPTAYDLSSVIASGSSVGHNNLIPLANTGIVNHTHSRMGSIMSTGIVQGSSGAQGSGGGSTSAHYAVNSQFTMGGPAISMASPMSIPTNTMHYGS
Protocol: To this aim, human PRMT4 (full length) was covalently immobilized on a sensor chip surface using an amine-coupling approach, and the three compounds were injected at different concentrations over the protein surface. To reduce false positives from detergent-sensitive, nonspecific aggregation-based binding, detergents (0.05% Tween-20) were added to the running buffer in all experiments.
SPR experiments were performed on a Biacore T200 biosensor (Cytiva). PBS buffer (phosphate-buffered saline, pH 7.4) supplemented with 0.05% Tween-20 was used as the running buffer. […] One flow cell was left empty for background subtractions. […] Each compound was tested in […], prepared starting from 640 to 10 nM. Binding experiments were performed at 25 °C by using a flow rate of 30 μL/min, with 90 s monitoring of association and 90 s monitoring of dissociation. Regeneration of the surfaces was performed, when necessary, by a 10 s injection of 5 mM NaOH. […] The corrected sensorgrams for each compound were fitted simultaneously using a 1:1 Langmuir model to obtain equilibrium dissociation constants (KD) and kinetic dissociation (koff) and association (kon) constants.

[11] = read-out: IC50 (μM) PRMT8, 5 μM histone H4, 1 μM 3H-SAM
[12] = read-out: IC50 PRMT8 (Figure 5 heatmap)
[13] = read-out: IC50 (μM) PRMT6, 5 μM GST-GAR, 1 μM 3H-SAM
[14] = read-out: IC50 PRMT6 (Figure 5 heatmap)
[15] = read-out: IC50 (μM) PRMT1, 5 μM histone H4, 1 μM 3H-SAM
[16] = read-out: IC50 PRMT1 (Figure 5 heatmap)
[17] = SPR, immobilized PRMT4, 25 °C, KD from ratio koff/kon
[18] = SPR, immobilized PRMT4, read-out: kon
[19] = supplementary csv, read-out: SPR KON for PRMT4

Structure (SMILES)	IC50 [2, 11]	IC50 [2, 12]	IC50 [6, 13]	IC50 [6, 14]	Papp at 24 h, 0.2 mM [8]	IC50 [9, 15]	IC50 [9, 16]	koff ([10]; SPR, immobilized PRMT4)	Kd [10, 17]	kon [10, 18]	τR [10]	SPR tR for PRMT4 ([10]; supplementary csv)	kon [10, 19]	gain in the inhibitory activity against PRMT1 ([9]; on increasing the linker between 4-hydroxy-2-naphthoate and guanidine (values equal the ratio to the IC50 of 12c))	Kd [10]	remaining activity at 1 µM [1]	remaining activity at 1 µM [3]	remaining activity at 1 µM [4]	inhibition of the KMT panel [5]	remaining activity at 1 µM [7]
COC(=O)c1cc(O)c2cc(NC(=O)NCCCCNC(=N)NC/C=C/[C@H]3O[C@@H](n4cnc5c(N)ncnc54)[C@H](O)[C@@H]3O)ccc2c1 [12h, Methyl 6-(3-(4-(3-((E)-3-((2R,3S,4R,5R)-5-(6-Amino-9H-purin-9-yl)-3,4-dihydroxytetrahydrofuran-2-yl)allyl)guanidino)butyl)ureido)-4-hydroxy-2-naphthoate]	1.95 µM	1.95 µM	1.75 µM	1.75 µM	0.038 ×10⁻⁶ cm/s	–	–	–	–	–	–	–	–	–	–	102 ± 3.11%	72.83 ± 0.68%	130 ± 6.36%	none of the enzymes was inhibited; also recorded: no inhibiting effect against these enzymes	104 ± 1.13%
COC(=O)c1cc(O)c2cc(NC(=O)NCCCCCNC(=N)NC[C@H]3O[C@@H](n4cnc5c(N)ncnc54)[C@H](O)[C@@H]3O)ccc2c1 [12c, Methyl 6-(3-(5-(3-(((2R,3S,4R,5R)-5-(6-Amino-9H-purin-9-yl)-3,4-dihydroxytetrahydrofuran-2-yl)methyl)guanidino)pentyl)ureido)-4-hydroxy-2-naphthoate]	5.87 µM	5.87 µM	> 100 µM	–	–	8.46 µM	–	0.013 s⁻¹	359 nM	34900 M⁻¹ s⁻¹	76.9 s	–	–	–	–	–	–	–	–	–

The next lines start with results.

IC50 [2, 11]	IC50 [2, 12]	IC50 [6, 13]	IC50 [6, 14]	Papp at 24 h, 0.2 mM [8]	IC50 [9, 15]	IC50 [9, 16]	koff ([10]; SPR, immobilized PRMT4)	Kd [10, 17]	kon [10, 18]	τR [10]	SPR tR for PRMT4 ([10]; supplementary csv)	kon [10, 19]	gain in the inhibitory activity against PRMT1 ([9]; on increasing the linker between 4-hydroxy-2-naphthoate and guanidine (values equal the ratio to the IC50 of 12c))	Kd [10]	Structure (SMILES)	remaining activity at 1 µM [1]	remaining activity at 1 µM [3]	remaining activity at 1 µM [4]	inhibition of the KMT panel [5]	remaining activity at 1 µM [7]
1.41 µM	1.41 µM	4.34 µM	4.34 µM	0.039 ×10⁻⁶ cm/s	1.8 µM	1.79 µM	0.013 s⁻¹	51.7 nM	250000 M⁻¹ s⁻¹	76.9 s	76.9 s	247000 M⁻¹ s⁻¹	–	–	COC(=O)c1cc(O)c2cc(NC(=O)NCCCCNC(=N)NCCC[C@H]3O[C@@H](n4cnc5c(N)ncnc54)[C@H](O)[C@@H]3O)ccc2c1 [12g, Methyl 6-(3-(4-(3-(3-((2R,3S,4R,5R)-5-(6-Amino-9H-purin-9-yl)-3,4-dihydroxytetrahydrofuran-2-yl)propyl)guanidino)butyl)ureido)-4-hydroxy-2-naphthoate]	–	–	–	–	–
5.84 µM	–	35.6 µM	–	–	2.6 µM	2.6 µM	0.015 s⁻¹	603 nM	25800 M⁻¹ s⁻¹	66.7 s	–	–	3.2 fold	–	COC(=O)c1cc(O)c2cc(NC(=O)NCCCCCCCNC(=N)NC[C@H]3O[C@@H](n4cnc5c(N)ncnc54)[C@H](O)[C@@H]3O)ccc2c1 [12e, Methyl 6-(3-(7-(3-(((2R,3S,4R,5R)-5-(6-Amino-9H-purin-9-yl)-3,4-dihydroxytetrahydrofuran-2-yl)methyl)guanidino)heptyl)ureido)-4-hydroxy-2-naphthoate]	–	–	–	–	–
6 µM	6 µM	22.7 µM	22.7 µM	0.055 ×10⁻⁶ cm/s	4.86 µM	4.86 µM	0.068 s⁻¹	–	2.7e+06 M⁻¹ s⁻¹	14.7 s	14.7 s	2.7e+06 M⁻¹ s⁻¹	–	25.2 nM	COC(=O)c1cc(O)c2cc(NC(=O)NCCCCNC(=N)NCC[C@H]3O[C@@H](n4cnc5c(N)ncnc54)[C@H](O)[C@@H]3O)ccc2c1 [12f, Methyl 6-(3-(4-(3-(2-((2R,3S,4R,5R)-5-(6-Amino-9H-purin-9-yl)-3,4-dihydroxytetrahydrofuran-2-yl)ethyl)guanidino)butyl)ureido)-4-hydroxy-2-naphthoate]	–	–	–	–	–
